SMILES strings stand for the structures. Some results are limits rather than exact numbers.

What is called IC50 is the concentration that inhibits the measured activity by half. Low values mean greater potency, high ones weaker potency.

The target of one experiment is MAPK14 (UniProt Q16539). The experiment can be described thus: Inhibition of MAPK14 Kinase Activity.
The next experiment deals with MAPK14 (human) (UniProt Q16539). The experiment can be described thus: Inhibition of LPS-Stimulated TNF-alpha Production in Human Whole Blood.
Chain of MAPK14 (human) (Q16539 whole entry, looked up): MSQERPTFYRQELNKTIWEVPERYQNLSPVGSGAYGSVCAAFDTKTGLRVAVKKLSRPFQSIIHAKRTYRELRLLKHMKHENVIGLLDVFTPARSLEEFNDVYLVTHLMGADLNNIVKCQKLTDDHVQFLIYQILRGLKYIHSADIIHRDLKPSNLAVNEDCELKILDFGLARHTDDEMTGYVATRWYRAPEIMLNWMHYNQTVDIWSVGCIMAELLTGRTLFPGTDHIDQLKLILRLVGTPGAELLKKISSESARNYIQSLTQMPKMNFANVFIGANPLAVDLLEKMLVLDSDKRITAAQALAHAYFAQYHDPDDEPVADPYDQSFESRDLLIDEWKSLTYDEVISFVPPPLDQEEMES

Chain of MAPK14 (Q16539 whole entry, looked up): as above

The compound `Cc1ccc(NC(=O)c2ccnc(N3CCOCC3)c2)cc1Nc1ccnc(OC2CCN(C)CC2)n1` registered a half-maximal inhibitory concentration (IC50) against MAPK14 of 45 nM.
On MAPK14 (human), `COc1cc2ncnc(Nc3cccc(NC(=O)c4cccc(N(C)C)c4)c3)c2cc1OC` gave an IC50 greater than 50000 nM.
Regarding `CCCN1CCC(Oc2nccc(Nc3cc(NC(=O)c4cccc(N5CCOCC5)c4)ccc3C)n2)CC1`, at MAPK14, the IC50 is 49 nM.
In the case of `C=CCN(C)c1nccc(Nc2cc(NC(=O)c3ccnc(N4CCOCC4)c3)ccc2C)n1`, at MAPK14 (human), the IC50 was greater than 50000 nM.
At MAPK14 (human), `COc1cc2ncnc(Nc3cccc(NC(=O)c4ccccc4)c3)c2cc1OC` gave an IC50 greater than 50000 nM.
Consider `CSc1nccc(Nc2cc(NC(=O)c3cc(F)cc(N4CCOCC4)c3)ccc2C)n1`, for which the IC50 against MAPK14 is 14 nM.
At MAPK14, `Cc1ccc(NC(=O)c2ccnc(N3CCOCC3)c2)cc1Nc1ccnc(OCC(C)(C)CN(C)C)n1` showed an IC50 of 79 nM.
The compound `COc1cc2ncnc(Nc3cccc(Cl)c3)c2cc1OC` gave an IC50 on MAPK14 (human) greater than 50000 nM.
Turning to `COc1cc2ncnc(Nc3cc(NC(=O)c4cccc(N5CCOCC5)c4)ccc3C)c2cc1OCCN(C(C)C)C(C)C`, the IC50 worked out at 52 nM on MAPK14 and 3500 nM against MAPK14 (human).
In turn, `COc1cc2ncnc(Nc3cc(NC(=O)c4ccccc4)ccc3C)c2cc1OC` registered an IC50 at MAPK14 of 78 nM.
`COc1cc2ncnc(Nc3cc(NC(=O)c4ccccc4)c(F)cc3F)c2cc1OC`: the IC50 at MAPK14 was 54 nM; at MAPK14 (human), greater than 50000 nM.
Regarding `COc1cc2ncnc(Nc3cc(NC(=O)c4cccc(N5CCOCC5)c4)ccc3C)c2cc1OCCN(C)C`, the results for the IC50 against MAPK14 and at MAPK14 (human) were 35 nM and 6900 nM, respectively.
Take `COc1cc2ncnc(Nc3cc(NC(=O)c4cccc(N(C)C)c4)ccc3Cl)c2cc1OC`: the IC50 against MAPK14 was 47 nM; against MAPK14 (human), greater than 50000 nM.
Take `Cc1ccc(NC(=O)c2ccnc(N3CCOCC3)c2)cc1Nc1cc(NCCCN2CCCN(C)CC2)ncn1`: the IC50 against MAPK14 is 1220 nM; against MAPK14 (human) it was greater than 50000 nM.
`Cc1ccc(NC(=O)c2ccnc(N3CCOCC3)c2)cc1Nc1cc(NCCCN2CCCC2)ncn1` registered a concentration for half-maximal inhibition (IC50) against MAPK14 (human) greater than 50000 nM.
With `COc1cc2ncnc(Nc3cc(NC(=O)c4cccc(N5CCOCC5)c4)ccc3C)c2cc1OCCN1CCCCC1`, the IC50 at MAPK14 is 56 nM; against MAPK14 (human) it was 4600 nM.
In the case of `Cc1ccc(NC(=O)c2ccnc(N3CCOCC3)c2)cc1Nc1cc(Cl)ncn1`, the IC50 at MAPK14 (human) was greater than 50000 nM.
Take `COc1cc2ncnc(Nc3cc(NC(=O)c4ccccc4)ccc3Cl)c2cc1OC`: the IC50 was 88 nM against MAPK14 and greater than 50000 nM on MAPK14 (human).
With `CCCN1CCC(Oc2nccc(Nc3cc(NC(=O)c4ccnc(N5CCOCC5)c4)ccc3C)n2)CC1`, the IC50 on MAPK14 was determined as 55 nM.
As to `COc1cc2ncnc(Nc3ccc(Cl)c(NC(=O)c4ccccc4)c3)c2cc1OC`, at MAPK14 (human), the IC50 was greater than 50000 nM.
`COc1cc2ncnc(Nc3cc(NC(=O)c4ccccc4)c(Cl)cc3F)c2cc1OC` returned an IC50 against MAPK14 (human) greater than 50000 nM.
As to `Cc1ccc(NC(=O)c2ccnc(N3CCOCC3)c2)cc1Nc1ccnc(OCC2CCCN(C)C2)n1` (stereo not given), the IC50 on MAPK14 stood at 33 nM.
Turning to `COc1cc2ncnc(Nc3cc(NC(=O)c4cccc(N5CCOCC5)c4)ccc3C)c2cc1OCCN1CCOCC1`, the IC50 came to 24 nM at MAPK14 and 7800 nM at MAPK14 (human).
On to `Cc1ccc(NC(=O)c2ccnc(N3CCOCC3)c2)cc1Nc1ccnc(NCCCN2CCOCC2)n1`, for which the figures for the IC50 on MAPK14 and on MAPK14 (human) were 98 nM and greater than 50000 nM, respectively.
Compound `COc1cc2ncnc(Nc3cccc(NC(=O)c4ccccc4)c3F)c2cc1OC` displayed an IC50 against MAPK14 (human) greater than 50000 nM.
The same measure, in the same setting: the figure for `COc1cc2ncnc(Nc3ccc(Cl)c(NC(=O)c4cccc(N(C)C)c4)c3)c2cc1OC` is greater than 50000 nM.
`Cc1ccc(NC(=O)c2ccnc(N3CCOCC3)c2)cc1Nc1ccnc(NCCCN2CCCC2)n1`: the IC50 against MAPK14 turned out to be 58 nM.
Take `COc1cc2ncnc(Nc3cc(NC(=O)c4cccc(N5CCOCC5)c4)ccc3C)c2cc1OCCN1CCCC1`: the IC50 against MAPK14 was determined as 39 nM.
`Cc1ccc(NC(=O)c2ccnc(N3CCOCC3)c2)cc1Nc1ccnc(OCCCN(C)C)n1`: the IC50 on MAPK14 is 37 nM.
On to `Cc1ccc(NC(=O)c2ccnc(N3CCOCC3)c2)cc1Nc1ccnc(Cl)n1`, for which the IC50 against MAPK14 is 19 nM.
Regarding `COc1cc2ncnc(Nc3ccc(C)c(NC(=O)c4ccccc4)c3)c2cc1OC`, on MAPK14 (human), the IC50 is greater than 50000 nM.

(Values after the Kinase Knowledgebase extract (Sharma et al. 2016).)
